Test results taken from US20110166123A1, “NOVEL COMPOSITIONS AND METHODS OF USE” (priority 2008, published 2011).

The compounds below were run on human immunodeficiency virus type 1 (HIV-1) (assay: microbe, parasite or virus in culture). Details: Human immunodeficiency virus 1, HeLa, 48 h, HIV-1 luciferase reporter, HeLa cells, 48 hours after infection.
Assay type: cell-based

`COc1nc2c(cc1NCc1ccccc1Cl)c(=O)c(C(=O)O)cn2[C@H](CO)C(C)C` [Example 20M, (S)-6-(2-chlorobenzylamino)-1-(1-hydroxy-3-methylbutan-2-yl)-7-methoxy-4-oxo-1,4-dihydro-1,8-naphthyridine-3-carboxylic acid] and `COc1nc2c(cc1NCc1ccc(F)c(Cl)c1)c(=O)c(C(=O)O)cn2[C@H](CO)C(C)C` [Example 20F, (S)-6-(3-chloro-4-fluorobenzylamino)-1-(1-hydroxy-3-methylbutan-2-yl)-7-methoxy-4-oxo-1,4-dihydro-1,8-naphthyridine-3-carboxylic acid] cannot be ordered by EC50: > 100 nM for the first, > 100 nM for the second.

Compared with `CC(C)[C@@H](CO)n1cc(C(=O)O)c(=O)c2cc(Nc3cccc(Cl)c3F)ncc21` [Example 16A, (S)-6-(3-chloro-2-fluorophenylamino)-1-(1-hydroxy-3-methylbutan-2-yl)-4-oxo-1,4-dihydro-1,7-naphthyridine-3-carboxylic acid], `CC(C)[C@@H](CO)n1cc(C(=O)O)c(=O)c2cc(Cc3ccc(Cl)c(Cl)c3)ncc21` [Example 5Q] is lower in EC50: > 100 nM for the first, 10 to 100 nM for the second.

First: CCCC(CO)n1cc(C(=O)O)c(=O)c2cc(Cc3cccc(Cl)c3F)c(OC)nc21 (stereo not drawn) [Example 1J]
Second: COc1nc2c(cc1Cc1cccc(Cl)c1F)c(=O)c(C(=O)O)cn2[C@@H](C)CO [Example 1F]
The EC50 of the first is lower: 10 to 100 nM for the first, > 100 nM for the second.

First: COc1nc2c(cc1-c1cccc(Cl)c1F)c(=O)c(C(=O)O)cn2[C@H](CO)C(C)C [Example 17C]
Second: COc1nc2c(cc1Cc1cccc(Cl)c1F)c(=O)c(C(=O)O)cn2[C@@H](CO)C(C)C [Example 1C]
The EC50 of the first is higher: > 100 nM for the first, 10 to 100 nM for the second.

`COc1nc2c(cc1CNc1c(F)cc(F)cc1F)c(=O)c(C(=O)O)cn2[C@H](CO)C(C)C` [Example 12A, (S)-1-(1-hydroxy-3-methylbutan-2-yl)-7-methoxy-4-oxo-6-((2,4,6-trifluorophenylamino)methyl)-1,4-dihydro-1,8-naphthyridine-3-carboxylic acid] and `COc1nc2c(cc1NCc1cc(F)c(F)cc1F)c(=O)c(C(=O)O)cn2[C@H](CO)C(C)C` [Example 20II, (S)-1-(1-hydroxy-3-methylbutan-2-yl)-7-methoxy-4-oxo-6-(2,4,5-trifluorobenzylamino)-1,4-dihydro-1,8-naphthyridine-3-carboxylic acid] cannot be ordered by EC50: > 100 nM for the first, > 100 nM for the second.

First: COc1cc2c(cc1NCc1ccc(F)cc1)c(=O)c(C(=O)O)cn2[C@H](CO)C(C)C [Example 21A, (S)-6-(4-Fluorobenzylamino)-1-(1-hydroxy-3-methylbutan-2-yl)-7-methoxy-4-oxo-1,4-dihydroquinoline-3-carboxylic acid]
Second: COc1nc2c(cc1NCc1ccc(F)cc1)c(=O)c(C(=O)O)cn2[C@H](CO)C(C)C [Example 20C, (S)-6-(4-fluorobenzylamino)-1-(1-hydroxy-3-methylbutan-2-yl)-7-methoxy-4-oxo-1,4-dihydro-1,8-naphthyridine-3-carboxylic acid]
The EC50 of the first is lower: < 10 nM for the first, 10 to 100 nM for the second. The first is the more potent here.

First: CC(C)(C)[C@@H](CO)n1cc(C(=O)NCCCn2ccnc2)c(=O)c2cc(Cc3cccc(Cl)c3F)c(NCCCn3ccnc3)nc21 [Example 2HH]
Second: COCCCNc1nc2c(cc1Cc1cccc(Cl)c1F)c(=O)c(C(=O)O)cn2[C@H](CO)C(C)(C)C [Example 2U]
The EC50 of the first is higher: > 100 nM for the first, < 10 nM for the second.

First: COc1nc2c(cc1NCc1cc(F)c(F)c(F)c1)c(=O)c(C(=O)O)cn2[C@H](CO)C(C)C [Example 20DD, (S)-1-(1-hydroxy-3-methylbutan-2-yl)-7-methoxy-4-oxo-6-(3,4,5-trifluorobenzylamino)-1,4-dihydro-1,8-naphthyridine-3-carboxylic acid]
Second: COc1nc2c(cc1NCc1c(F)cccc1F)c(=O)c(C(=O)O)cn2[C@H](CO)C(C)C [Example 20Z, (S)-6-(2,6-difluorobenzylamino)-1-(1-hydroxy-3-methylbutan-2-yl)-7-methoxy-4-oxo-1,4-dihydro-1,8-naphthyridine-3-carboxylic acid]
The EC50 of the first is higher: > 100 nM for the first, 10 to 100 nM for the second. The second is the more potent here.

`O=C(O)c1cn(C[C@H](O)c2ccccc2)c2cnc(Cc3cccc(Cl)c3F)cc2c1=O` [Example 5O] and `COc1nc2c(cc1Cc1cccc(Cl)c1F)c(=O)c(C(=O)O)cn2C[C@@H](O)c1ccccc1` [Example 1R] cannot be ordered by EC50: > 100 nM for the first, > 100 nM for the second.

`COc1nc2c(cc1NCCc1ccc(F)cc1)c(=O)c(C(=O)O)cn2[C@H](CO)C(C)C` [Example 20T, (S)-6-(4-fluorophenethylamino)-1-(1-hydroxy-3-methylbutan-2-yl)-7-methoxy-4-oxo-1,4-dihydro-1,8-naphthyridine-3-carboxylic acid] and `COc1nc2c(cc1NCCc1cccc(Cl)c1)c(=O)c(C(=O)O)cn2[C@H](CO)C(C)C` [Example 20G, (S)-6-(3-chlorophenethylamino)-1-(1-hydroxy-3-methylbutan-2-yl)-7-methoxy-4-oxo-1,4-dihydro-1,8-naphthyridine-3-carboxylic acid] cannot be ordered by EC50: > 100 nM for the first, > 100 nM for the second.

`COc1nc2c(cc1-c1ccc(F)cc1)c(=O)c(C(=O)O)cn2[C@H](CO)C(C)C` [Example 17A] and `COc1nc2c(cc1CNc1ccc(F)cc1)c(=O)c(C(=O)O)cn2[C@H](CO)C(C)C` [Example 12D] cannot be ordered by EC50: > 100 nM for the first, > 100 nM for the second.

`CCCn1cc(C(=O)O)c(=O)c2c(N)nc(SC)nc21` [Example 7B] and `CCCn1cc(C(=O)OC(=O)c2ccccc2)c(=O)c2c(NC(C)=O)nc(SC)nc21` [Example 7D] cannot be ordered by EC50: > 100 nM for the first, > 100 nM for the second.

`COc1nc2c(cc1NC1CCCc3ccccc31)c(=O)c(C(=O)O)cn2[C@H](CO)C(C)C` (stereo partly drawn) [Example 20JJ, 1-((S)-1-hydroxy-3-methylbutan-2-yl)-7-methoxy-4-oxo-6-(1,2,3,4-tetrahydronaphthalen-1-ylamino)-1,4-dihydro-1,8-naphthyridine-3-carboxylic acid] and `COc1nc2c(cc1N(C)Cc1ccccc1F)c(=O)c(C(=O)O)cn2[C@H](CO)C(C)C` [Example 20U, (S)-6-((2-fluorobenzyl)(methyl)amino)-1-(1-hydroxy-3-methylbutan-2-yl)-7-methoxy-4-oxo-1,4-dihydro-1,8-naphthyridine-3-carboxylic acid] cannot be ordered by EC50: > 100 nM for the first, > 100 nM for the second.

`CC(C)(C)[C@@H](CO)n1cc(C(=O)O)c(=O)c2cc(Cc3cccc(Cl)c3F)c(NCc3ccccn3)nc21` [Example 2FF] and `CC(C)(C)[C@@H](CO)n1cc(C(=O)O)c(=O)c2cc(Cc3cccc(Cl)c3F)c(N)nc21` [Example 3A, (S)-7-Amino-6-(3-chloro-2-fluorobenzyl)-1-(1-hydroxy-3,3-dimethylbutan-2-yl)-4-oxo-1,4-dihydro-1,8-naphthyridine-3-carboxylic acid] cannot be ordered by EC50: < 10 nM for the first, < 10 nM for the second.

`CC(C)(C)[C@@H](CO)n1cc(C(=O)O)c(=O)c2cc(NCc3c(F)cc(F)cc3F)c(Cl)cc21` [Example 26D, (S)-7-chloro-1-(1-hydroxy-3,3-dimethylbutan-2-yl)-4-oxo-6-(2,4,6-trifluorobenzylamino)-1,4-dihydroquinoline-3-carboxylic acid] and `CC(C)(C)[C@@H](CO)n1cc(C(=O)O)c(=O)c2cc(NCc3ccc(F)cc3)c(F)cc21` [Example 26A, (S)-7-fluoro-6-(4-fluorobenzylamino)-1-(1-hydroxy-3,3-dimethylbutan-2-yl)-4-oxo-1,4-dihydroquinoline-3-carboxylic acid] fall in the same range of EC50: 10 to 100 nM for the first, 10 to 100 nM for the second.

`COc1cc2c(cc1Oc1ccc(C(F)(F)F)cc1N)c(=O)c(C(=O)O)cn2[C@H](CO)C(C)(C)C` [Example 29G] and `COc1nc2c(cc1NCc1cccc(C(F)(F)F)c1)c(=O)c(C(=O)O)cn2[C@H](CO)C(C)C` [Example 20X, (S)-1-(1-hydroxy-3-methylbutan-2-yl)-7-methoxy-4-oxo-6-(3-(trifluoromethyl)benzylamino)-1,4-dihydro-1,8-naphthyridine-3-carboxylic acid] cannot be ordered by EC50: > 100 nM for the first, > 100 nM for the second.

First: COc1cc2c(cc1COc1ccc(F)cc1)c(=O)c(C(=O)O)cn2[C@H](CO)C(C)C [Example 15A, (S)-6-((4-fluorophenoxy)methyl)-1-(1-hydroxy-3-methylbutan-2-yl)-7-methoxy-4-oxo-1,4-dihydroquinoline-3-carboxylic acid]
Second: COc1nc2c(cc1Cc1ccc(F)cc1F)c(=O)c(C(=O)O)cn2[C@H](CO)C(C)C [Example 1E]
The EC50 of the first is higher: > 100 nM for the first, 10 to 100 nM for the second.

`COc1nc2c(cc1-c1cccc(C#N)c1)c(=O)c(C(=O)O)cn2[C@H](CO)C(C)C` [Example 17F] and `COc1nc2c(cc1N[C@H](C)c1ccc(F)cc1)c(=O)c(C(=O)O)cn2[C@H](CO)C(C)C` [Example 20LL, 6-((R)-1-(4-fluorophenyl)ethylamino)-1-((S)-1-hydroxy-3-methylbutan-2-yl)-7-methoxy-4-oxo-1,4-dihydro-1,8-naphthyridine-3-carboxylic acid] cannot be ordered by EC50: > 100 nM for the first, > 100 nM for the second.

`COc1nc2c(cc1NCc1ccc(F)cc1)c(=O)c(C(=O)O)cn2[C@H](CO)C(C)(C)C` [Example 20MM, (S)-6-(4-fluorobenzylamino)-1-(1-hydroxy-3,3-dimethylbutan-2-yl)-7-methoxy-4-oxo-1,4-dihydro-1,8-naphthyridine-3-carboxylic acid] and `COc1nc2c(cc1N1CCc3ccc(F)cc3C1)c(=O)c(C(=O)O)cn2[C@H](CO)C(C)C` [Example 17N] cannot be ordered by EC50: > 100 nM for the first, > 100 nM for the second.

Compared with `CCOc1nc2c(cc1NCc1c(F)cc(F)cc1F)c(=O)c(C(=O)O)cn2[C@H](CO)C(C)C` [Example 27B, (S)-7-Ethoxy-1-(1-hydroxy-3-methylbutan-2-yl)-4-oxo-6-(2,4,6-trifluorobenzylamino)-1,4-dihydro-1,8-naphthyridine-3-carboxylic acid], `CC(C)(C)[C@@H](CO)n1cc(C(=O)O)c(=O)c2cc(Cc3cccc(Cl)c3F)c(N3CCOCC3)nc21` [Example 2A, (S)-6-(3-chloro-2-fluorobenzyl)-7-morpholin-1-(1-hydroxy-3,3-dimethylbutan-2-yl)-4-oxo-1,4-dihydro-1,8-naphthyridine-3-carboxylic acid] is lower in EC50: 10 to 100 nM for the first, < 10 nM for the second. The second is the more potent here.

First: CC(C)(C)[C@@H](CO)n1cc(C(=O)O)c(=O)c2cc(Cc3cccc(Cl)c3F)c(N3CCC(CO)CC3)nc21 [Example 2Y]
Second: CC(C)(C)[C@@H](CO)n1cc(C(=O)O)c(=O)c2cc(Cc3cccc(Cl)c3F)c(NCCN3CCOCC3)nc21 [Example 2CC]
The EC50 of the first is higher: 10 to 100 nM for the first, < 10 nM for the second. The second is the more potent here.
